Test results reported in US20040087642A1, “Methods of using and compositions comprising a JNK inhibitor for the treatment, prevention, management and/or modification of pain” (priority 2002, published 2004).

What was measured:
[1] = tested on: rat ventral mesencephalan dopaminergic neurons; test: [3H]Dopamine Cell Culture Assay (6-OHDA neurotoxicity); format: cell-based; settings: 6-OHDA 30 μM, uptake 22 hrs after exposure
Procedure: Cultures of dopaminergic neurons were prepared according to a modification of the procedure described by Raymon and Leslie (J. Neurochem. 62:1015-1024, 1994). Time-mated pregnant rats were sacrificed on embyronic day 14-15 (crown rump length 11-12 mm) and the embryos removed by cesarean section. The ventral mesencephalon, containing the dopaminergic neurons, was dissected from each embryo. Tissue pieces from approximately 48 embryos were pooled and dissociated both enzymatically and mechanically. An aliquot from the resulting cell suspension was counted and the cells were plated in high glucose DMEM/F12 culture medium with 10% fetal bovine serum at a density of 1×10^5 cells/well of a Biocoat poly-D-lysine-coated 96-well plate. The day following plating was considered 1 day in vitro (DUV). Cells were maintained in a stable environment at 37° C., 95% humidity, and 5% CO2. A partial medium change was performed at 3 DIV. […]
[^3H]Dopamine uptake is used as a measure of the health and integrity of dopaminergic neurons in culture (Prochiantz et al., PNAS 76: 5387-5391, 1979). […] Briefly, cells treated with 6-OHDA in the presence and absence of 5-amino-anthra(9,1-cd)isothiazol-6-one were assessed in the uptake assay 22 hrs after exposure to 6-OHDA. […] Radioactivity was removed and the cultures were washed 3× with ice cold PBS. […]

[2] = Brain-Blood Plasma Distribution In Vivo; parameters: species or system Sprague-Dawley rats; settings: rat
Procedure: 5-Amino-anthra(9,1-cd)isothiazol-6-one was administered intravenously (10 mg/kg) into the veins of Sprague-Dawley rats. After 2 hr, blood samples were obtained from the animals and their vascular systems were perfused with approximately 100 mL of saline to rid their brains of blood. The brains were removed from the animals, weighed, and homogenized in a 50 mL conical tube containing 10 equivalents (w/v) of methanol/saline (1:1) using a Tissue Tearer (Fischer Scientific). The homogenized material was extracted by adding 600 μL of cold methanol to 250 μL of brain homogenate vortexed for 30 sec and subjected to centrifugation for 5 min. After centrifugation, 600 μL of the resulting supernatant was transferred to a clean tube and evaporated at room temperature under reduced pressure to provide a pellet. […] The brain homogenate analysis samples, plasma analysis samples, and standard analysis samples were analyzed and compared using HPLC by injecting 100 μL of a sample onto a 5 μm C-18 Luna column (4.6 mm×150 mm, commercially available from Phenomenex of Torrance, Calif.) and eluting at 1 mL/min with a linear gradient of 30% aqueous acetonitrile containing 0.1% trifluoroacetic acid to 90% aqueous acetonitrile containing 0.1% trifluoroacetic acid over 8 minutes and holding at 90% aqueous acetonitrile containing 0.1% trifluoroacetic acid for 3 min. with absorbance detection at 450 nm. […]

[3] = Solubility in aqueous media; format: physicochemical

- brain-drug concentration ([2]; 10 mg/kg intravenously, 2 hr post-dose): approximately 65 nmole/g
- solubility in aqueous media [3]: limited solubility
Structure (SMILES): Nc1ccc2snc3c2c1C(=O)c1ccccc1-3 [5-amino-anthra(9,1-cd)isothiazol-6-one]
- protection of dopaminergic neurons ([3H]dopamine uptake) [1]: protects rat ventral mesencephalan neurons from the toxic effects of 6-OHDA
- blood-brain barrier crossing ([2]; following intravenous administration): crosses the blood-brain barrier to a significant extent
